Earlier results, collected in US20080262086A1, “SUBSTITUTED ANTHRANILIC ACIDS” (AUSPEX PHARMACEUTICALS, INC., priority 2007, published 2008).

Key:
[1] = short half-life of bumetanide, background
[2] = system: reabsorption of sodium, potassium, and chloride; conditions: times more potent than furosemide

- half-life [1]: 1 to 1.5 h
Compound: CCCCNc1cc(C(=O)O)cc(S(N)(=O)=O)c1Oc1ccccc1 [Bumetanide, 3-Butylamino-4-phenoxy-5-sulfamoyl-benzoic acid]
- potency relative to furosemide [2]: approximately 40 times
